According to patent US11566212B2, “Integrated microfluidic system for culturing and testing” (priority 2016, dated 2023):
Read-outs that look alike come from different tables or passages of the source.

Assays:
[1] = not given; remark: listed apart in the source
[2] = Diffusion chips, silicone membrane soaked in isopropyl myristate
[3] = Franz cells, silicone membrane soaked in isopropyl myristate

## Cn1c(=O)c2c(ncn2C)n(C)c1=O [caffeine]
24 h
  Steady state flux: 13 μg/cm^2 h
[2]
  Dm (diffusion coefficient): 1.8 10^−3 cm^2/h
  tlag (lag time): 0.37 h
[1]; 24 h
  Steady state flux: 13 μg/cm^2 h
[1]; [3]
  Dm (diffusion coefficient): 1.3 10^−3 cm^2/h
  tlag (lag time): 0.52 h
